Experimental findings from US8569316B2, “Pyrimido [5,4-D] pyrimidine derivatives for the inhibition of tyrosine kinases” (Boehringer Ingelheim International GmbH, priority 2009, dated 2013) are described below.

In this assay the target is B-Raf (V600E)-kinase (Homo sapiens (Human), UniProt P15056, V600E). Nature of the assay: Kinase test B-Raf (V600E). Conditions: 250 μM ATP, biotinylated MEK1 substrate. The assay is classed as biochemical. As to the method: In a dilution series 10 μL of test substance solution are placed in a multiwell plate. The dilution series is selected so that generally a range of concentrations of 2 μM to 0.128 nM or 0.017 nM is covered. If necessary the initial concentration of 2 μM is changed to 50 μM, 10 μM or 0.4 μM or 0.2857 μM and further dilution is carried out accordingly. The final concentration of DMSO is 5%. 10 μL of the B-Raf (V600E)-kinase solution are pipetted in (containing 0.5 ng B-Raf (V600E)-kinase in 20 mM Tris-HCl pH 7.5, 0.1 mM EDTA, 0.1 mM EGTA, 0.286 mM sodium orthovanadate, 10% glycerol, 1 mg/mL bovine serum albumin, 1 mM dithiothreitol) and the mixture is incubated for 1 h at RT under with shaking. The kinase reaction is started by the addition of 20 μL ATP solution [final concentration: 250 μM ATP, 30 mM Tris-HCl pH 7.5, 0.02% Brij, 0.2 mM sodium orthovanadate, 10 mM magnesium acetate, phosphatase cocktail (Sigma, #P2850, dilution recommended by the manufacturer), 0.1 mM EGTA] and 10 μL MEK1 solution [containing 50 ng biotinylated MEK1 (prepared from purified MEK1 according to standard procedure, e.g. with EZ-Link Sulpho-NHS-LC-Biotin reagent, Pierce, #21335) in 50 mM Hepes pH 7.5, 150 mM NaCl, 10% glycerol, 0.02% Brij-35, 0.2 mM PMSF, 0.2 mM benzamidine] and carried out for 60 min at RT with constant shaking. The reaction is stopped by the addition of 12 μL of a 100 mM EDTA solution and incubation is continued for a further 5 min. 55 μL of the reaction solution are transferred into a streptavidin-coated plate (e.g. Streptawell HighBond, Roche, #11989685001) and shaken gently for 1 h at RT, in order to bind biotinylated MEK1 to the plate. After elimination of the liquid the plate is washed five times with 200 μL of 1×PBS and 100 μL solution of primary antibody plus europium-labelled secondary antibody [Anti Phospho-MEK (Ser217/221), Cell Signaling, #9121 and Eu-N1 labeled goat-anti-rabbit antibody, Perkin Elmer, #AD0105], the primary antibody is diluted 1:2000 and the secondary antibody is diluted to 0.4-0.5 μg/mL in Delfia Assay Buffer (Perkin Elmer, #1244-111). After 1 h shaking at RT the solution is poured away and washed five times with 200 μL Delfia Wash Buffer (Perkin Elmer, #4010-0010/#1244-114). After the addition of 200 μL Enhancement Solution (Perkin Elmer, #4001-0010/#1244-105) the mixture is shaken for 10 min at RT and then measured in a Wallac Victor using the program “Delfia Time Resolved Fluorescence (Europium)”. IC50 values are obtained from these dosage-activity curves using a software program (GraphPadPrizm).
Sequence of B-Raf (V600E)-kinase (P15056 whole entry V600E): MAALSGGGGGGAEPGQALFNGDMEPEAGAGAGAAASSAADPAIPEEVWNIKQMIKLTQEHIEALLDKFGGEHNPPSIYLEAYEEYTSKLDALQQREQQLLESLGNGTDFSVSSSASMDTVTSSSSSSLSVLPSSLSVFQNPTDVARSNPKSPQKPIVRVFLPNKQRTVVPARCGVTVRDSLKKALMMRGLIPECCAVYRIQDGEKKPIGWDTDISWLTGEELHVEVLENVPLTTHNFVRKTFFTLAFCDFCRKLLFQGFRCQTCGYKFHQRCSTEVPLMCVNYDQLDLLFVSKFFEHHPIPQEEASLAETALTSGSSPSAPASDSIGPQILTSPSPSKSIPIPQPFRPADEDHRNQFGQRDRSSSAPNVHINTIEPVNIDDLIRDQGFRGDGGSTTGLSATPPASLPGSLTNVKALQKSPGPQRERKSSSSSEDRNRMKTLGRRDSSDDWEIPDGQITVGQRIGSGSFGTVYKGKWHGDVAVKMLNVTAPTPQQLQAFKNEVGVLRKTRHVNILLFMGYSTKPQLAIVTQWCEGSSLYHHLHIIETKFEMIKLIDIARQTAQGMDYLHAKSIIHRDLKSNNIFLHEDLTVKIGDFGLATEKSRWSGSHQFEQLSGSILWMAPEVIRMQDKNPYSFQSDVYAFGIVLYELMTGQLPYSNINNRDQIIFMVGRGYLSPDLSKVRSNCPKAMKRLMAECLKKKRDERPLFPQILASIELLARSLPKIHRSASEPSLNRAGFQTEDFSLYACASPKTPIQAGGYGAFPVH

As usually defined, the IC50 is the concentration that inhibits the measured activity by half. A low value points to inhibition by little substance. For `COc1c(NC(=O)c2ccc(C)c(Nc3ncnc4ccc(CC5CNCCOC5)nc34)c2)cc(C(C)(C)C)cc1NS(C)(=O)=O` (stereo not drawn) [III-43], half-maximal inhibition (IC50) required 213 nM.
Then `COc1c(NC(=O)c2ccc(C)c(Nc3ncnc4ccc(CC5CCN(C)CC5)nc34)c2)cc(C(C)(C)C)cc1NS(C)(=O)=O` [III-44], with 364 nM; and `CCN1CCC(Cc2ccc3ncnc(Nc4cc(C(=O)Nc5cc(C(C)(C)C)cc(NS(C)(=O)=O)c5OC)ccc4C)c3n2)CC1` [III-45], with 530 nM.
Take `COc1c(NC(=O)c2ccc(C)c(Nc3ncnc4ccc(CC5CCN(C(C)C)CC5)nc34)c2)cc(C(C)(C)C)cc1NS(C)(=O)=O` [III-46]: it took 553 nM to reach half-maximal inhibition (IC50).
As for `COc1c(NC(=O)c2ccc(C)c(Nc3ncnc4ccc(CC5CCN(CC6CC6)CC5)nc34)c2)cc(C(C)(C)C)cc1NS(C)(=O)=O` [III-47], half-maximal inhibition (IC50) was put at 504 nM.
Then `CCCN1CCC(Cc2ccc3ncnc(Nc4cc(C(=O)Nc5cc(C(C)(C)C)cc(NS(C)(=O)=O)c5OC)ccc4C)c3n2)CC1` [III-48], with 583 nM; and `COCCN1CCC(Cc2ccc3ncnc(Nc4cc(C(=O)Nc5cc(C(C)(C)C)cc(NS(C)(=O)=O)c5OC)ccc4C)c3n2)CC1` [III-49], with 496 nM.
Then `CCOCCN1CCC(Cc2ccc3ncnc(Nc4cc(C(=O)Nc5cc(C(C)(C)C)cc(NS(C)(=O)=O)c5OC)ccc4C)c3n2)CC1` [III-50], with 479 nM; and `Cc1ccc(C(=O)Nc2cc(C(C)(C)C)on2)cc1Nc1ncnc2ccc(C3=CCNCC3)nc12` [III-51], with 23 nM; and `COCCN1CCN(c2ccc3ncnc(Sc4cc(C(=O)Nc5cccc(C(C)(C)C#N)c5)ccc4C)c3n2)CC1` [III-52], with 261 nM.
Next, `COCCN1CCN(c2ccc3ncnc(Sc4cc(C(=O)Nc5cc(N6CCN(C)CC6)cc(C(F)(F)F)c5)ccc4C)c3n2)CC1` [III-53]: 190 nM.
With `COCCN1CCN(c2ccc3ncnc(Sc4cc(C(=O)Nc5cc(C(C)(C)C)on5)ccc4C)c3n2)CC1` [III-54], the midpoint of inhibition, the IC50, lay at 269 nM.
Molecule `COCCN1CCN(c2ccc3ncnc(Sc4cc(C(=O)Nc5cc(C(C)(C)C)cc(NS(C)(=O)=O)c5OC)ccc4C)c3n2)CC1` [III-55] yielded an IC50 of 1620 nM.
Next, `Cc1ccc(NC(=O)c2cccc(C(C)(C)C#N)c2)cc1Nc1ncnc2ccc(N3CCOCC3)nc12` [IV-1]: 4 nM.
Take `Cc1ccc(NC(=O)c2cccc(C(C)(C)C#N)c2)cc1Nc1ncnc2ccc(N3CCN(C)CC3)nc12` [IV-2]: inhibition was half-maximal at 8 nM (IC50).
Next, `COCCN1CCN(c2ccc3ncnc(Nc4cc(NC(=O)c5cccc(C(C)(C)C#N)c5)ccc4C)c3n2)CC1` [IV-3]: 18 nM; `Cc1ccc(NC(=O)c2cccc(C(C)(C)C#N)c2)cc1Nc1ncnc2ccc(N3CC[C@H](F)C3)nc12` [IV-4]: 11 nM; `Cc1ccc(NC(=O)c2cccc(C(C)(C)C#N)c2)cc1Nc1ncnc2ccc(N[C@H]3CCOC3)nc12` [IV-5]: 5 nM.
